From patent publication US20150177202A1, “ODOR THRESHOLD TEST” (University of Tennessee Research Foundation, priority 2013, published 2015)
“And” between values parts separate entries of the source, which are not always exact repeats. Equal values may be shown once.

Tests used:
olfactory system = assay: WUTC Odor Threshold Test (yes-no detection of odorant dilutions in water, signal detection analysis); type: in vivo, human; set-up: Estimated odorant threshold, Mean / Mean estimated threshold / Estimated odorant threshold, Minimum: unit not given here; settings: for Threshold: combined trials of all 33 subjects, logistic regression, p=0.5; for Estimated threshold compared with literature value: in vivo; for Estimated odorant threshold, Maximum: maximum of individual participant thresholds, in ppm; for Estimated odorant threshold, Mean: mean of individual participant thresholds; for Estimated odorant threshold, Minimum: minimum of individual participant thresholds
Excerpt: The present study involved the creation and study of a new test of olfactory ability, deemed the Wheeler University of Tennessee, Chattanooga (WUTC) Odor Threshold Test. This test was developed building upon the methodology behind signal detection theory as it allowed for multiple measures of olfactory ability to be calculated from a single test. These measures are sensitivity, response-bias, and threshold. Unlike currently available threshold tests, the WUTC Odor Threshold Test utilizes a randomized, multiple odor administration along with the presentation of blank concentrations.
A total of thirty three participants (N=33), collected from the UTC campus, were administered the WUTC threshold test.
To make the test, odorant molecules were first dissolved in a purified H2O solvent following their individual levels of solubility to create standard solutions. These standards were the highest concentration for each odorant and the base from which all successive dilutions were made. Liquid odorants ethanol, pinene, and isoamyl acetate were diluted by volume whereas para-cresol and vanillin were diluted by mass. Each standard was rounded to the nearest μL. A total of nine concentrations were made from each standard solution and diluted at a ratio of 1:2. The highest concentration for each odor as well as concentration ranges were chosen based on literature threshold values and a small, preliminary testing period. Solutions (10 mL) of each odorant were diluted and contained in sterilized and dried glass vials with black, screw-top lids (see FIG. 12).
Blanks were made using 10 mL of the same purified H2O used as a solvent for the other odorants. The final test contained 45 vials with odorant concentrations and nine blanks for a total of 54 vials. Tests were remade after either one month or ten administrations had been reached to avoid any amount of loss of odor strength that could result from extended shelf time or exposure to air during administrations. Before reproducing the test, vials underwent sterilization and drying procedures.
Each subject was instructed to complete the provided demographic form (see below). […] Each participant was then seated in a cushioned, high backed chair facing away from a table where each testing vial was placed. In a brief tutorial to the test, subjects were instructed that they would be presented with a number of vials, some containing odors and some not, one at a time. Subjects were then told that they would only be required to smell the contents of the vial and verbally give a “yes” or “no” answer as to whether they detected anything. […] Once the subject felt comfortable with the instructions presented in this tutorial, the actual test was started.
Following a randomly generated number sequence for each subject, a seated test administrator would select the correspondingly numbered test vial for each trial, place it in tongs, and hand it to a second administrator that, like the participant, was facing away from the administration table. […] The “yes” or “no” response given by the subject was recorded by the first administrator and the vial and tongs were returned to him/her by the second administrator. This procedure was repeated for each of the odorant tubes in the test with each tube presented to the participant twice.

trigeminal nerve = settings: cited from earlier work
[1] = test system: premature newborn infants; settings: olfactory stimulation; cited from earlier work
[2] = concentration 1 (lowest), combined participant trials
[3] = concentration 2, combined participant trials
[4] = concentration 3, combined participant trials
[5] = concentration 4, combined participant trials
[6] = concentration 5, combined participant trials
[7] = concentration 6, combined participant trials
[8] = concentration 7, combined participant trials
[9] = concentration 8, combined participant trials
[10] = concentration 9 (highest), combined participant trials

## CCO [Ethanol, ethanol]
Olfactory system; African Americans
  Mean estimated threshold: 112.069
Olfactory system; Caucasians
  Mean estimated threshold: 344.968
Olfactory system
  Threshold: 263.750 ppm
  Estimated threshold compared with literature value: at or within literature values
  Estimated odorant threshold, Maximum: 942.747
  Estimated odorant threshold, Mean: 251.808
  Estimated odorant threshold, Minimum: 1.057
Olfactory system; [2]
  Mean A′: 0.757
  Mean d′: 0.898
Olfactory system; [3]
  Mean A′: 0.716
  Mean d′: 0.704
Olfactory system; [4]
  Mean A′: 0.514
  Mean d′: 0.035
Olfactory system; [5]
  Mean A′: 0.741
  Mean d′: 0.819
Olfactory system; [6]
  Mean A′: 0.561
  Mean d′: 0.16
Olfactory system; [7]
  Mean A′: 0.766
  Mean d′: 0.941
Olfactory system; [8]
  Mean A′: 0.668
  Mean d′: 0.513
Olfactory system; [9]
  Mean A′: 0.789
  Mean d′: 1.066
Olfactory system; [10]
  Mean A′: 0.804
  Mean d′: 1.154
Olfactory system; participants with headaches (N=8)
  Mean estimated threshold: 396.631
Olfactory system; participants without headaches (N=12)
  Mean estimated threshold: 155.260
Trigeminal nerve
  Concentration causing irritation of the trigeminal nerve: over 1000 ppm

## CC(=O)OCCC(C)C [Isoamyl Acetate, isoamyl acetate]
Olfactory system
  Threshold: 38.274 ppm
  Estimated threshold compared with literature value: below its literature value
  Estimated odorant threshold, Maximum: 65.102
  Estimated odorant threshold, Mean: 13.935
  Estimated odorant threshold, Minimum: 0.513
Olfactory system; [2]
  Mean A′: 0.407
  Mean d′: −0.249
Olfactory system; [3]
  Mean A′: 0.424
  Mean d′: −0.198
Olfactory system; [4]
  Mean A′: 0.424
  Mean d′: −0.198
Olfactory system; [5]
  Mean A′: 0.478
  Mean d′: −0.053
Olfactory system; [6]
  Mean A′: 0.716
  Mean d′: 0.704
Olfactory system; [7]
  Mean A′: 0.716
  Mean d′: 0.704
Olfactory system; [8]
  Mean A′: 0.796
  Mean d′: 1.11
Olfactory system; [9]
  Mean A′: 0.826
  Mean d′: 1.299
Olfactory system; [10]
  Mean A′: 0.781
  Mean d′: 1.024

## CC1=CCC2CC1C2(C)C [Pinene, L-α-pinene]
Olfactory system
  Threshold: 275.598 ppm
  Estimated threshold compared with literature value: greater than values found
  Estimated odorant threshold, Maximum: 795.338
  Estimated odorant threshold, Mean: 251.225
  Estimated odorant threshold, Minimum: 0.778
Olfactory system; [2]
  Mean A′: 0.407
  Mean d′: −0.249
Olfactory system; [3]
  Mean A′: 0.757
  Mean d′: 0.898
Olfactory system; [4]
  Mean A′: 0.561
  Mean d′: 0.16
Olfactory system; [5]
  Mean A′: 0.514
  Mean d′: 0.035
Olfactory system; [6]
  Mean A′: 0.668
  Mean d′: 0.513
Olfactory system; [7]
  Mean A′: 0.724
  Mean d′: 0.742
Olfactory system; [8]
  Mean A′: 0.847
  Mean d′: 1.458
Olfactory system; [9]
  Mean A′: 0.901
  Mean d′: 2.097
Olfactory system; [10]
  Mean A′: 0.875
  Mean d′: 1.72
Trigeminal nerve
  Activity as an irritant: nearly inactive as an irritant

## COc1cc(C=O)ccc1O [Vanillin, vanillin]
Olfactory system
  Threshold: 112.426 ppm
  Estimated threshold compared with literature value: greater than values found
  Estimated odorant threshold, Maximum: 339.932
  Estimated odorant threshold, Mean: 119.978 and 19.978
  Estimated odorant threshold, Minimum: 2.619
Olfactory system; [2]
  Mean A′: 0.39
  Mean d′: −0.302
Olfactory system; [3]
  Mean A′: 0.478
  Mean d′: −0.053
Olfactory system; [4]
  Mean A′: 0.531
  Mean d′: 0.077
Olfactory system; [5]
  Mean A′: 0.625
  Mean d′: 0.359
Olfactory system; [6]
  Mean A′: 0.561
  Mean d′: 0.16
Olfactory system; [7]
  Mean A′: 0.678
  Mean d′: 0.55
Olfactory system; [8]
  Mean A′: 0.781
  Mean d′: 1.024
Olfactory system; [9]
  Mean A′: 0.796
  Mean d′: 1.11
Olfactory system; [10]
  Mean A′: 0.888
  Mean d′: 1.885
Olfactory system; subjects with asthma (N=8)
  Mean estimated threshold: 207.137
Olfactory system; subjects without asthma (N=18)
  Mean estimated threshold: 86.084
[1]
  Effect on apnea: significantly prevent apnea

## CCCCO [n-butanol, reference compound]
Trigeminal nerve
  Concentration causing irritation of the trigeminal nerve: approximately 200 ppm

## Cc1ccc(O)cc1 [para-cresol]
Olfactory system
  Threshold: 1.058 ppm
  Estimated threshold compared with literature value: at or within literature values
  Estimated odorant threshold, Maximum: 5.28
  Estimated odorant threshold, Mean: 1.340
  Estimated odorant threshold, Minimum: 0.005
Olfactory system; [2]
  Mean A′: 0.356
  Mean d′: −0.416
Olfactory system; [3]
  Mean A′: 0.561
  Mean d′: 0.16
Olfactory system; [4]
  Mean A′: 0.614
  Mean d′: 0.32
Olfactory system; [5]
  Mean A′: 0.614
  Mean d′: 0.32
Olfactory system; [6]
  Mean A′: 0.313
  Mean d′: 0.475
Olfactory system; [7]
  Mean A′: 0.804
  Mean d′: 1.154
Olfactory system; [8]
  Mean A′: 0.847
  Mean d′: 1.458
Olfactory system; [9]
  Mean A′: 0.84
  Mean d′: 1.403
Olfactory system; [10]
  Mean A′: 0.908
  Mean d′: 2.246
